# Assay results taken from PMC9090415, “Discovery of small molecule inhibitors of Plasmodium falciparum apicoplast DNA polymerase” (Journal of Enzyme Inhibition and Medicinal Chemistry, 2022).
# Biological target: P. falciparum apicoplast DNA polymerase (Pf-apPOL) (Plasmodium falciparum, UniProt Q8ILY1)
# Assay: Fluorescence-based high-throughput DNA polymerase assay (molecular beacon), primary screen and dose-response;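 on % inhibition ApPOL 90': test concentration in µM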;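 on % inhibition apPOL 180': test concentration in µM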
# Type: biochemical
# Settings: for DNA Pol: 90 min, 10 µM
# How it was run: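 Single-point screening used 10 µM compound with 20 nM polymerase, 20 nM hairpin substrate and 6 µM dNTPs for 90 min at 25 °C. Confirmatory titrations (2.5–80 µM) followed fluorescence at three times, and IC50 was derived from a fit including a cooperativity term n.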
# Chain of P. falciparum apicoplast DNA polymerase (Pf-apPOL) (Q8ILY1 entry or part of it): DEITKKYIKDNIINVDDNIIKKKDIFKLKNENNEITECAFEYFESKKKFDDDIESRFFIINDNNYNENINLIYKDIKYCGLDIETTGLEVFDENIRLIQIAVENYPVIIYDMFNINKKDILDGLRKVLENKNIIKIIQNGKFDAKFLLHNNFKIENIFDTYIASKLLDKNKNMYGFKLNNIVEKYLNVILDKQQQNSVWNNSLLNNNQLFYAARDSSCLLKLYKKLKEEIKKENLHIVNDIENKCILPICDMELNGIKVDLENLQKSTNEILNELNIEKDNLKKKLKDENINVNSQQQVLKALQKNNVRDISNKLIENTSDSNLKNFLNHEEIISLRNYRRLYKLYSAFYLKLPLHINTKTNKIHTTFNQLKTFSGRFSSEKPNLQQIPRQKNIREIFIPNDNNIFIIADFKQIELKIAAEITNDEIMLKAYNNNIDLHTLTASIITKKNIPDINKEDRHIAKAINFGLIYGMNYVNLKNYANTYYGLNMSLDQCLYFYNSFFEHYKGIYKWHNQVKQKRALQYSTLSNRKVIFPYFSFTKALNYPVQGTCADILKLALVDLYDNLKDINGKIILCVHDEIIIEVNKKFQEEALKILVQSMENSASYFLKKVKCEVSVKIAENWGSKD
smiles,measurement,setting,value
"O=C1Nc2ccc(I)cc2C1=Cc1cc(Br)c(O)c(Br)c1 [Molecule 27, Ic1ccc2c(c1)C(=Cc1cc(Br)c(c(c1)Br)O)C(=O)N2]",DNA Pol,'DNA Pol' of the 186 hits list (screen value),52
same,% inhibition Apo pol 10',"DRC-1, conc 2.5",-2.766%
same,% inhibition Apo pol 10',"DRC-1, conc 5",14.7903%
same,% inhibition Apo pol 10',"DRC-1, conc 10",55.8319%
same,% inhibition Apo pol 10',"DRC-1, conc 20",68.6495%
same,% inhibition Apo pol 10',"DRC-1, conc 40",74.9605%
same,% inhibition Apo pol 10',"DRC-1, conc 80",94.5024%
same,% inhibition Apol 90',"DRC-1, 90', conc 2.5",-5.207%
same,% inhibition Apol 90',"DRC-1, 90', conc 5",5.358%
same,% inhibition Apol 90',"DRC-1, 90', conc 10",51.0216%
same,% inhibition Apol 90',"DRC-1, 90', conc 20",63.6894%
same,% inhibition Apol 90',"DRC-1, 90', conc 40",72.1753%
same,% inhibition Apol 90',"DRC-1, 90', conc 80",93.708%
same,% inhibition apPOL 180',"DRC-1, conc 2.5",-6.922%
same,% inhibition apPOL 180',"DRC-1, conc 5",0.7186%
same,% inhibition apPOL 180',"DRC-1, conc 10",40.1564%
same,% inhibition apPOL 180',"DRC-1, conc 20",53.0871%
same,% inhibition apPOL 180',"DRC-1, conc 40",65.7742%
same,% inhibition apPOL 180',"DRC-1, conc 80",93.2975%
same,% inhibition Apo pol 5',"DRC-2, 5', conc 2.5",-1.67%
same,% inhibition Apo pol 5',"DRC-2, 5', conc 5",2.85%
same,% inhibition Apo pol 5',"DRC-2, 5', conc 10",38%
same,% inhibition Apo pol 5',"DRC-2, 5', conc 20",54%
same,% inhibition Apo pol 5',"DRC-2, 5', conc 40",54%
same,% inhibition Apo pol 5',"DRC-2, 5', conc 80",54%
same,% inhibition Apo pol 5',"DRC-2, 5', concentration 20",54%
same,% inhibition Apo pol 5',"DRC-2, 5', concentration 40",54%
same,% inhibition Apo pol 5',"DRC-2, 5', concentration 80",54%
same,% inhibition Apol 40',"DRC-2, 40', conc 2.5",0.385%
same,% inhibition Apol 40',"DRC-2, 40', conc 5",11%
same,% inhibition Apol 40',"DRC-2, 40', conc 10",48%
same,% inhibition Apol 40',"DRC-2, 40', conc 20",68%
same,% inhibition Apol 40',"DRC-2, 40', conc 40",71%
same,% inhibition Apol 40',"DRC-2, 40', conc 80",72%
same,% inhibition Apol 40',"DRC-2, 40', concentration 5",11%
same,% inhibition Apol 40',"DRC-2, 40', concentration 10",48%
same,% inhibition Apol 40',"DRC-2, 40', concentration 80",72%
same,% inhibition ApPOL 90',"DRC-2, 90', conc 2.5",2.27%
same,% inhibition ApPOL 90',"DRC-2, 90', conc 5",11%
same,% inhibition ApPOL 90',"DRC-2, 90', conc 10",48%
same,% inhibition ApPOL 90',"DRC-2, 90', conc 20",70%
same,% inhibition ApPOL 90',"DRC-2, 90', conc 40",74%
same,% inhibition ApPOL 90',"DRC-2, 90', conc 80",76%
same,% inhibition ApPOL 90',"DRC-2, 90', concentration 5",11%
same,% inhibition ApPOL 90',"DRC-2, 90', concentration 10",48%
same,% inhibition ApPOL 90',"DRC-2, 90', concentration 80",76%
same,% inhibition apPOL 180',"DRC-2, conc 2.5",0.56%
same,% inhibition apPOL 180',"DRC-2, conc 5",6%
same,% inhibition apPOL 180',"DRC-2, conc 10",40%
same,% inhibition apPOL 180',"DRC-2, conc 20",67%
same,% inhibition apPOL 180',"DRC-2, conc 40",72%
same,% inhibition apPOL 180',"DRC-2, conc 80",76%
same,% inhibition apPOL 180',"DRC-2, concentration 40",72%
same,% inhibition apPOL 180',"DRC-2, concentration 80",76%
same,DNA Pol,"primary screen value, ""DNA Pol""",52
"CCOc1cccc2cc(C(=O)Nc3nnc(-c4ccno4)o3)oc12 [Molecule 28, CCOc1cccc2c1oc(c2)C(=O)Nc1nnc(o1)c1ccno1]",% inhibition Apo pol 10',"DRC-1, concentration 2.5",10.6274%
same,% inhibition Apo pol 10',"DRC-1, concentration 5",33.541%
same,% inhibition Apo pol 10',"DRC-1, concentration 10",66.1299%
same,% inhibition Apo pol 10',"DRC-1, concentration 20",85.0301%
same,% inhibition Apo pol 10',"DRC-1, concentration 40",91.7568%
same,% inhibition Apo pol 10',"DRC-1, concentration 80",93.7028%
same,% inhibition Apol 90',"DRC-1, 90', concentration 2.5",2.531%
same,% inhibition Apol 90',"DRC-1, 90', concentration 5",15.4654%
same,% inhibition Apol 90',"DRC-1, 90', concentration 10",41.5074%
same,% inhibition Apol 90',"DRC-1, 90', concentration 20",63.6828%
same,% inhibition Apol 90',"DRC-1, 90', concentration 40",78.9695%
same,% inhibition Apol 90',"DRC-1, 90', concentration 80",87.3573%
same,% inhibition apPOL 180',"DRC-1, concentration 2.5",-1.99%
same,% inhibition apPOL 180',"DRC-1, concentration 5",5.082%
same,% inhibition apPOL 180',"DRC-1, concentration 10",24.8097%
same,% inhibition apPOL 180',"DRC-1, concentration 20",44.8371%
same,% inhibition apPOL 180',"DRC-1, concentration 40",65.9166%
same,% inhibition apPOL 180',"DRC-1, concentration 80",81.0763%
same,% inhibition Apo pol 5',"DRC-2, 5', concentration 20 (unit not given)",45%
same,% inhibition Apo pol 5',"DRC-2, 5', concentration 40 (unit not given)",45%
same,% inhibition Apol 40',"DRC-2, 40', concentration 80 (unit not given)",66%
same,% inhibition ApPOL 90',"DRC-2, 90', concentration 10 (unit not given)",45%
same,% inhibition ApPOL 90',"DRC-2, 90', concentration 40 (unit not given)",66%
same,% inhibition Apo pol 5',"DRC-2, 5', concentration 2.5",16%
same,% inhibition Apo pol 5',"DRC-2, 5', concentration 5",28%
same,% inhibition Apo pol 5',"DRC-2, 5', concentration 10",46%
same,% inhibition Apo pol 5',"DRC-2, 5', concentration 20",45%
same,% inhibition Apo pol 5',"DRC-2, 5', concentration 40",45%
same,% inhibition Apo pol 5',"DRC-2, 5', concentration 80",39%
same,% inhibition Apol 40',"DRC-2, 40', concentration 2.5",14%
same,% inhibition Apol 40',"DRC-2, 40', concentration 5",24%
same,% inhibition Apol 40',"DRC-2, 40', concentration 10",50%
same,% inhibition Apol 40',"DRC-2, 40', concentration 20",57%
same,% inhibition Apol 40',"DRC-2, 40', concentration 40",64%
same,% inhibition Apol 40',"DRC-2, 40', concentration 80",66%
same,% inhibition ApPOL 90',"DRC-2, 90', concentration 2.5",11%
same,% inhibition ApPOL 90',"DRC-2, 90', concentration 5",20%
same,% inhibition ApPOL 90',"DRC-2, 90', concentration 10",45%
same,% inhibition ApPOL 90',"DRC-2, 90', concentration 20",56%
same,% inhibition ApPOL 90',"DRC-2, 90', concentration 40",66%
same,% inhibition ApPOL 90',"DRC-2, 90', concentration 80",70%
same,% inhibition apPOL 180',"DRC-2, concentration 2.5",2%
same,% inhibition apPOL 180',"DRC-2, concentration 5",5%
same,% inhibition apPOL 180',"DRC-2, concentration 10",29%
same,% inhibition apPOL 180',"DRC-2, concentration 20",44%
same,% inhibition apPOL 180',"DRC-2, concentration 40",61%
same,% inhibition apPOL 180',"DRC-2, concentration 80",72%
same,DNA Pol,"primary screen value of the 186 hits, unit not given",79
same,DNA Pol,"primary screen value, head ""DNA Pol"", unit not given",79
CCOc1cccc2cc(C(=O)Nc3nnc(-c4ccno4)o3)oc12 [Molecule 28],IC50,"supplemental file 2, sheet IC50 nontoxic compounds, Pf-apPOL",7.04 µM
